The values below come from patent publication US8685658B2, “Compositions and methods for the treatment of diseases associated with aberrant cilia assembly and regulation” (Fox Chase Cancer Center, priority 2006, dated 2014).

Test [1] addresses FGFR1 (Homo sapiens, UniProt P11362). To be noted: cited from earlier work.
In test [2] the target is T1, AurA (Homo sapiens, UniProt O14965).
T1 construct: endogenous AurA immunoprecipitated from mammalian cells; endogenous in cells; host or cells: hTERT-RPE1
T1 sequence (O14965 1-403): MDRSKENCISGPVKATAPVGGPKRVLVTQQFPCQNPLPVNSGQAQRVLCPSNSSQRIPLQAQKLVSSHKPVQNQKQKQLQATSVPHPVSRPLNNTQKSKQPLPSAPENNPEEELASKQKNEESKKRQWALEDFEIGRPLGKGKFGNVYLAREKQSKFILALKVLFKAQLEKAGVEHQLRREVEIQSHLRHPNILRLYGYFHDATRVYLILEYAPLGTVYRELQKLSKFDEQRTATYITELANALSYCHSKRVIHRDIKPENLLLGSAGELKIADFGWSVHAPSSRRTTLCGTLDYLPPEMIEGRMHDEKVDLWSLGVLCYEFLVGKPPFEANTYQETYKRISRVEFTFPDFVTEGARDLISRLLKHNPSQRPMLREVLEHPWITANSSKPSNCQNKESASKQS
The test can be described thus: AurA activation and HEF1 phosphorylation in serum-stimulated hTERT-RPE1 cells (Western blot). To be noted: vs DMSO, 2 and 24 hour time points after serum. In kind it is cell-based. How it is done: For microinjection, recombinant glutathione-S-transferase (GST), GST fused AurA mutants T288A and D274N) produced from BL21 (DE3) bacteria were purified using the MicroSpin GST Purification Module (Amersham Biotech.). Purified recombinant AurA was purchased from Upstate; this AurA was pre-activated based on incubation with ATP. […] To prepare lysates for Western blotting and IP, mammalian cells were disrupted by M-PER lysis buffer (Pierce) supplemented with EDTA-free protease inhibitor cocktail (Roche). Lysates used for IP were incubated overnight with antibody at 4° C., subsequently incubated for 2 hours with protein A/G-sepharose (Pierce), washed, and resolved by SDS-PAGE. Western blotting was performed using standard procedures and proteins visualized using the West-Pico system (Pierce). Antibodies used included mouse monoclonal antibody (mAb) anti-HEF1 2G9 (Pugacheva and Golemis, 2005), anti-α-tubulin mAb (Sigma), anti-AurA (BD Bioscience) for Western blotting, anti-AurA rabbit polyclonal (Cell Signaling) for IP, anti-Phospho-AurA/T288 (BioLegend), anti-Phospho-AurA/T288 (Cell Signaling), anti-HDAC6 rabbit polyclonal (Upstate; 1:5000), anti-HDAC2 rabbit polyclonal (Invitrogen) and mAb anti-β-actin (AC15, Sigma), anti-IFT88 and anti-IFT20. Secondary horseradish peroxidase (HRP)-conjugated antibodies were from Amersham Biotech. […]
(In general: Immunoblotting shows a protein as a band on a membrane.)

The test system of test [3] is hTERT-RPE1 cells. The test can be described thus: serum-induced ciliary disassembly in ciliated hTERT-RPE1 cells. In kind it is cell-based. How it is done: hTERT-RPE1 cells were grown in DMEM with 10% fetal bovine serum (FBS). For analysis of ciliary disassembly, cells were plated at 30% confluence in plates containing glass cover slips, and starved for 48 hours (in Opti-MEM or regular DMEM, without added serum) to induce cilia formation, followed by treatments described hereinbelow. For siRNA treatment, cells were initially plated in DMEM/10% FBS in plates containing cover slips, and 12 hours later siRNA transfection was performed in Opti-MEM with Oligofectamine (Invitrogen) according to manufacturer recommendations, and fixed 48 hours after transfection, following treatments indicated in Results. The remaining cells on plate were lysed, then either directly analyzed by Western blot analysis, or used for immunoprecipitation (IP)-kinase reaction to measure AurA activity.
Cells were fixed with 4% paraformaldehyde (10 min) then methanol (5 min), permeabilized with 1% Triton-X100 in PBS, blocked in 1×PBS, 3% BSA, and incubated with antibodies using standard protocols. Primary antibodies included rabbit polyclonal anti-Aurora A and anti-phospho-AuroraA/T288, (Cell Signaling), mouse mAb anti-HEF1 (14A11), polyclonal anti-γ-tubulin (Sigma), anti-α-tubulin mAb (Sigma), anti-acetylated α-tubulin mAb (clone 6-11B-1, Sigma, and clone K(Ac)40 Biomol), anti-IFT88 and anti-IFT20 (gifts of G. Pazour), mouse anti-glutamylated tubulin (Sigma), and anti-HDAC6 (Upstate). Secondary antibodies labeled with Alexa-488, Alexa-568, and Alexa-633, and TOTO-3 dye to stain DNA, were from Molecular Probes/Invitrogen. DNA was co-stained in some experiments by propidium iodine (Sigma) or Draq5 (Alexis), Confocal microscopy was performed using a Radiance 2000 laser scanning confocal microscope ((Carl Zeiss, Thornwood, N.Y.) coupled to a Nikon Eclipse E800 upright microscope (Nikon). Statistical analysis of data by one-way ANOVA was performed using GraphPad Instat 3.0 (San Diego, Calif.).

Test [4] deals with T2, AurA-HDAC6 (Homo sapiens, UniProt O14965).
T2 construct: endogenous in cells; host or cells: hTERT-RPE1
T2 sequence (O14965 1-403): T1 sequence (O14965 1-403)
T2 sequence (Q9UBN7 1-1215 partner): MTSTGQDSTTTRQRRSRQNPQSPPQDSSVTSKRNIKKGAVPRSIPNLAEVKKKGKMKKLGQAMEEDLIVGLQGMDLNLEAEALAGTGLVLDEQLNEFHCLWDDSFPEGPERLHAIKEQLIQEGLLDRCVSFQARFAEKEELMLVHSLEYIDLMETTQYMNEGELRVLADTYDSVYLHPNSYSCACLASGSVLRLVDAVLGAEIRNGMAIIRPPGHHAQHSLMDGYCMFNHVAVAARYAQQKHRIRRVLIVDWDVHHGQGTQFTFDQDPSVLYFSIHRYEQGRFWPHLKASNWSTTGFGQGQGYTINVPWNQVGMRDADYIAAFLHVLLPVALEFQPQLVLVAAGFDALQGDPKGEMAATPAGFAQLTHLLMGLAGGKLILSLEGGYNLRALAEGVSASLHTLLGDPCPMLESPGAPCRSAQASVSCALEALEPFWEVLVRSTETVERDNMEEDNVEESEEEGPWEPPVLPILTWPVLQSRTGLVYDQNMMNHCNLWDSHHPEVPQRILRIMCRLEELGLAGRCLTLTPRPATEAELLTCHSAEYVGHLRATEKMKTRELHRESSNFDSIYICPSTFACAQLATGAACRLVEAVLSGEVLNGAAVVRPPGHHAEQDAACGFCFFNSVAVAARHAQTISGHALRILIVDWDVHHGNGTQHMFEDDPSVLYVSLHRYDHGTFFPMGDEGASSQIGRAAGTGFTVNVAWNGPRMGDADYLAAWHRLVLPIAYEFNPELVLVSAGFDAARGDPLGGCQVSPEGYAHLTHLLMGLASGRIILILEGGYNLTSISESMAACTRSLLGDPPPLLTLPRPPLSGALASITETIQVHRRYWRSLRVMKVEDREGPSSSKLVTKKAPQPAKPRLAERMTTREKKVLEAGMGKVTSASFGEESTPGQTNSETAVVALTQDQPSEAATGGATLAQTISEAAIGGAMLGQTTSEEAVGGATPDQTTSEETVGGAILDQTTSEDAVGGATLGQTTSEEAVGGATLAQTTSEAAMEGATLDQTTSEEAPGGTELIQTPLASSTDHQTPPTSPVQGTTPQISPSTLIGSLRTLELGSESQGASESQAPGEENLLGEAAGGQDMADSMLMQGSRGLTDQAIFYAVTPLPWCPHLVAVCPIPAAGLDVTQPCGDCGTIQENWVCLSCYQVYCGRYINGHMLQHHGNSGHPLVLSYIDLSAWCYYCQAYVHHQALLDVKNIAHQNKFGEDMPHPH
The experiment in a line: AurA-HDAC6 coimmunoprecipitation from hTERT-RPE1 cells. In kind it is cell-based. As to conditions: pre-treatment of cells with inhibitor. How it is done:
For microinjection, recombinant glutathione-S-transferase (GST), GST fused AurA mutants T288A and D274N) produced from BL21 (DE3) bacteria were purified using the MicroSpin GST Purification Module (Amersham Biotech.). Purified recombinant AurA was purchased from Upstate; this AurA was pre-activated based on incubation with ATP. […] To prepare lysates for Western blotting and IP, mammalian cells were disrupted by M-PER lysis buffer (Pierce) supplemented with EDTA-free protease inhibitor cocktail (Roche). Lysates used for IP were incubated overnight with antibody at 4° C., subsequently incubated for 2 hours with protein A/G-sepharose (Pierce), washed, and resolved by SDS-PAGE. Western blotting was performed using standard procedures and proteins visualized using the West-Pico system (Pierce). Antibodies used included mouse monoclonal antibody (mAb) anti-HEF1 2G9 (Pugacheva and Golemis, 2005), anti-α-tubulin mAb (Sigma), anti-AurA (BD Bioscience) for Western blotting, anti-AurA rabbit polyclonal (Cell Signaling) for IP, anti-Phospho-AurA/T288 (BioLegend), anti-Phospho-AurA/T288 (Cell Signaling), anti-HDAC6 rabbit polyclonal (Upstate; 1:5000), anti-HDAC2 rabbit polyclonal (Invitrogen) and mAb anti-β-actin (AC15, Sigma), anti-IFT88 and anti-IFT20. Secondary horseradish peroxidase (HRP)-conjugated antibodies were from Amersham Biotech.

For test [5], the target named is AurB (Homo sapiens, UniProt Q96GD4). To be noted: cited from earlier work.
Chain of AurB (Q96GD4 whole entry): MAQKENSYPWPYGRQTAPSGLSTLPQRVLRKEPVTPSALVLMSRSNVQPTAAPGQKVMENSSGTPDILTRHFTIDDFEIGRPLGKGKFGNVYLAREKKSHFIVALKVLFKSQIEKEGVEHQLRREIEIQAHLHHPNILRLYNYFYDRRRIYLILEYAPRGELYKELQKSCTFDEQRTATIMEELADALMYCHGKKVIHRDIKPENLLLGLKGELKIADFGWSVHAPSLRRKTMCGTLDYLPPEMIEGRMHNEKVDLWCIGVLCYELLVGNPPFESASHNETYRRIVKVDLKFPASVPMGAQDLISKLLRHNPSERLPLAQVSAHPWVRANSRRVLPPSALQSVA

Chain of FGFR1 (P11362 22-822, species assumed): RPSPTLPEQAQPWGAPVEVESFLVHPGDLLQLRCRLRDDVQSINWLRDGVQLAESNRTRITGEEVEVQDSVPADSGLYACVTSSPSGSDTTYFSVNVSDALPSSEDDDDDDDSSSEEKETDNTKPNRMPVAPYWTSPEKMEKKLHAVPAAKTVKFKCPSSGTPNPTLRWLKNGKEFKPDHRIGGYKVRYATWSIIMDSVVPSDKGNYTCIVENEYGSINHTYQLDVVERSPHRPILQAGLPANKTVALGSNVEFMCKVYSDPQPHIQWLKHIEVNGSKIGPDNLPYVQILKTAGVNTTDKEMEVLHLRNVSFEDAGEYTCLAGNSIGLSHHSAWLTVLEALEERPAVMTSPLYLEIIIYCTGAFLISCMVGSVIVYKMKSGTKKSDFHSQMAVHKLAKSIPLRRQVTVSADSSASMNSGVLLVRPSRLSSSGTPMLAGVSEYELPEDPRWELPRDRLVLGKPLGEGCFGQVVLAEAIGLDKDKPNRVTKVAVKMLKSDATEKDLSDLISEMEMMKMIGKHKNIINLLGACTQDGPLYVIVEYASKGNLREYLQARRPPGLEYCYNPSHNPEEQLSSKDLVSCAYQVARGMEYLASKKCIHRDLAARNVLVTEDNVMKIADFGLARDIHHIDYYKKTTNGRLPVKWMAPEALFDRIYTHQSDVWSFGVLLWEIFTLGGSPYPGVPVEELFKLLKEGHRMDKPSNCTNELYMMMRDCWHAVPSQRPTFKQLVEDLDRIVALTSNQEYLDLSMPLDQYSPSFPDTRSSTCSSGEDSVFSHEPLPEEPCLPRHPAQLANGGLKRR

Broadly, the IC50 is the point on the concentration scale where inhibition reaches its midpoint. Regarding `CCc1cccc(CC)c1NC(=O)N1Cc2n[nH]c(NC(=O)c3ccc(N4CCN(C)CC4)cc3)c2C1` [PHA-680632], the IC50 in test [1] was 390 nM. Further, in test [2], the “HEF1 phosphorylation (115 kDa form)” value is recorded as “blocks” and the “appearance of T288-phospho-AurA” value is listed as “blocks appearance”. Also, the “second wave of ciliary disassembly, at the time of mitosis” value in test [3] (500 nM, 18-24 hours after serum) is “completely eliminated”. In addition, the “disassembly of cilia after serum stimulation” value in test [3] (cells pre-treated for 3 hours with 500 nM, tracked 24 hours post serum) is “strongly reduced”. In test [4], the AurA-HDAC6 coimmunoprecipitation result is reported as “not eliminated”. The IC50 in test [5] is 185 nM.
